Data as given in PMC6905855, “Agonist-specific voltage-dependent gating of lysosomal two-pore Na^+ channels” (eLife, 2019).
Several values for one entry are separate records, joined by “and”; a condition that tells them apart may be missing. Identical values can stand only once. Entries after “also recorded” stand apart in the source; their conditions may differ.

What was measured:
[1] = biological target: T1, surface-expressing mutant TPC2 channel (TPC2^LL/AA) in HEK293 cells (Homo sapiens, UniProt Q8NHX9, L11A/L12A); test: Whole-cell recordings of ITPC2-LL/AA; assay type: cell-based; conditions: for voltage-dependent inactivation of ITPC2, I1s / 0s: @-140mV, whole-cell
T1 construct: expressed in transfected cells; host or cells: HEK293
T1 sequence (Q8NHX9 whole entry L11A/L12A): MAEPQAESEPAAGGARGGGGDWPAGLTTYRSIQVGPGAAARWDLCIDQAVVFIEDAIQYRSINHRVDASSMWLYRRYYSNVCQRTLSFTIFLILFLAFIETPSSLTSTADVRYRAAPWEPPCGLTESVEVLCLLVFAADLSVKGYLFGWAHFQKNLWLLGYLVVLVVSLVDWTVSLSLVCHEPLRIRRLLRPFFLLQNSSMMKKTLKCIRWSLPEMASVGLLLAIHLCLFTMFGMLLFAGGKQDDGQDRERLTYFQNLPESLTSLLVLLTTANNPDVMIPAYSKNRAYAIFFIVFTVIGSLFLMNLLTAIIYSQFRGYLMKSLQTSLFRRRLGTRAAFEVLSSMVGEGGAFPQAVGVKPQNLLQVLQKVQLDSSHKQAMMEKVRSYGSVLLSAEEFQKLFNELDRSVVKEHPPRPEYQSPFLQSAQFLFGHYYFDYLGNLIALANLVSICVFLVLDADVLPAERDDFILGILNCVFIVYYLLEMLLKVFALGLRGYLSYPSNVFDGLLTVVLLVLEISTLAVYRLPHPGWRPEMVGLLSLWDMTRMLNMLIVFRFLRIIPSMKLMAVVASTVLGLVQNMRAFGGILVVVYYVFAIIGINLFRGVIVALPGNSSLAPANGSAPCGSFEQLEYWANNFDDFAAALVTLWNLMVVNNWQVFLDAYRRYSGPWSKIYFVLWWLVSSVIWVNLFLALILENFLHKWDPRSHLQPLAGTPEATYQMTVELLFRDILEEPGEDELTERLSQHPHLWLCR
Source text: We therefore characterized the responses of TPC2 channels to TCAs in detail using electrophysiological methods. We first performed whole-cell recordings in HEK293 cells that were transfected with surface-expressed TPC2 mutant channels (TPC2-L^11L^12-AA; abbreviated as TPC2^LL/AA hereafter).
(§1) All TPC1 and TPC2 mutants were generated with a site-directed mutagenesis kit (Qiagen) using EGFP- human TPC1 and TPC2 as the templates. All constructs were confirmed by DNA sequencing.
Cells were transfected with Lipofectamine 2000 (Invitrogen). After culture media were refreshed 18–24 hr post-transfection, cells were used for the electrophysiological assays 24–36 hr post-transfection.
All bath solutions were applied via a perfusion system that allowed complete solution exchange within a few seconds. […] Whole-cell currents were digitized at 10 kHz and filtered at 2 kHz.

hTPC2 = biological target: T2, hTPC2 (Homo sapiens, UniProt Q8NHX9); test: Whole-endolysosome recordings of ITPC2; assay type: biochemical; conditions: for Dose-dependent activation of TPC2 (normalized current): individual patches; for inactivation of ITPC2, I500ms / I10ms: @-120mV
T2 construct: expressed in transfected cells; host or cells: Cos1 and HEK293
T2 sequence (Q8NHX9 whole entry): as the sequence (Q8NHX9 whole entry L11A/L12A) above, with A11L, A12L counted along it

hTPC1 = biological target: T3, hTPC1 (Homo sapiens, UniProt Q9ULQ1); test: Whole-endolysosome recordings of ITPC1; assay type: biochemical
T3 construct: expressed in transfected cells; host or cells: Cos1
Description: It was therefore of interest to explore whether TCAs/LyNa-VAs could also act on TPC1. To investigate this, we used two different voltage paradigms. […] Second, we used a tail current paradigm to measure the amplitude of the peak inward current at −120 mV following prolonged steps to various potentials (Figure 4E).
Figure 4. […] HP = 0 mV. […] Dotted lines in A indicate where the currents were measured. […] Data are presented as Mean ± S.E.M (n = 3 patches). […] (G) Normalized I-V plots of basal voltage-dependent currents in WT TPC1- and TPC1^R540I-transfected cells. […] Figure 4—source data 1. […] Figure 4—figure supplement 1. […] (A) A voltage protocol that elicited ITPC1 tail currents as shown in Figure 4E (from −140 to 100 mV with a ∆V = 20 mV, 1 s with a 10 s inter-step interval). Arrows indicate where tail currents were measured. (B) A voltage protocol that elicited ITPC1 tail currents as shown in C. […] HP = 0 mV. […] (A) Basal whole-endolysosome ITPC1 (left) or ITPC1-R540I (right) was elicited by voltage steps (−140 to +100 mV with ΔV = 20 mV) in the absence of PI(3,5)P2 in TPC1-transfected Cos1 cells ([She et al., 2019]). Tail currents were elicited at −120 mV. (B) The effects of PI(3,5)P2 (0.3 µM) on ITPC1 (left) and ITPC1-R540I (right) step currents. […] A preconditioning voltage (+80 mV, 0.1 s) was applied before voltage steps starting from −140 to 100 mV (0.5 s, ∆V = 20 mV).
as §1
Whole-endolysosome recordings were performed on manually isolated enlarged endolysosomes ([Wang et al., 2012]). In brief, a patch pipette was pressed against a cell and quickly pulled away to slice the cell membrane. Enlarged endolysosomes were released into a dish and identified by monitoring EGFP-TPC1/2 or the mCherry-TPC1/2 fluorescence. After formation of a gigaseal between the patch pipette and the enlarged endolysosome, capacitance transients were compensated. Voltage steps of several hundred mVs with millisecond duration were then applied to break into the vacuolar membrane. The whole-endolysosome configuration was verified by the re-appearance of capacitance transients after break-in.
Data were collected using an Axopatch 200A patch clamp amplifier, Digidata 1440, and pClamp 10.2 software (Axon Instruments). Whole-endolysosome currents were digitized at 10 kHz and filtered at 2 kHz. All experiments were conducted at room temperature (21–23°C), and all recordings were analyzed with pClamp 10.2, and Origin 8.0 (OriginLab, Northampton, MA). The permeability to cations (relative to PNa) was estimated based on following equations ([Lewis, 1979]) and Erev measurement under bi-ionic conditions:(1) PX/PNa=γNa/γX{[Na^+]Luminal/[X^+]Cytoplasmic}{exp([…])} (2) PCa/PNa=γNa/γCa{[Na^+]Cytoplasmic/[4[Ca^2+]Luminal}{exp(ErevF/RT)}{1+exp(ErevF/RT)} where R, T, F, Erev, and γ are, respectively, the gas constant, absolute temperature, Faraday constant, reversal potential, and activity coefficient. The liquid junction potentials were measured and corrected as described ([Neher, 1992]).

[2] = LyNA1 (300 µM)-induced whole-cell ITPC2-LL/AA, individual
[3] = PI(3,5)P2 0.3 µM, LyNa-VA1.2 100 µM, LyNA1 300 µM, individual tests

- voltage-dependent inactivation of ITPC2, I1s / 0s ([1]; individual recordings): 0.9086 and 1.046 and 0.9409
- voltage-dependent inactivation of ITPC2, I1s / 0s ([1]; mean): 0.9653
- Px/PNa+, K+ [1, 2]: 0.05625 and 0.0959 and 0.1041
- Px/PNa+, Na+ [1, 2]: 0.8393 and 1.008 and 0.9746
- cation selectivity of induced whole-endolysosome ITPC2 (in words) (hTPC2): highly selective for Na^+ over K^+
- Dose-dependent activation of TPC2 (normalized current) (hTPC2; 10 µM +10nM PI(3,5)P2): 0.03469 and -0.1321 and -0.1628
- Dose-dependent activation of TPC2 (normalized current) (hTPC2; 50 µM +10nM PI(3,5)P2): 0.02967 and -0.04581 and -0.07904
- Dose-dependent activation of TPC2 (normalized current) (hTPC2; 50 µM, absence of PI(3,5)P2): 0.02084 and 0.03963 and 0.0267
- Dose-dependent activation of TPC2 (normalized current) (hTPC2; 100 µM +10nM PI(3,5)P2): 0.3825 and 0.3197 and 0.06652
- Dose-dependent activation of TPC2 (normalized current) (hTPC2; 150 µM +10nM PI(3,5)P2): 0.5952 and 0.5358 and 0.2713
- Dose-dependent activation of TPC2 (normalized current) (hTPC2; 300 µM +10nM PI(3,5)P2): 0.9432 and 0.8992 and 0.9659
- Dose-dependent activation of TPC2 (normalized current) (hTPC2; 300 µM, absence of PI(3,5)P2): 0.9388 and 0.9543
- Dose-dependent activation of TPC2 (normalized current) (hTPC2; 400 µM +10nM PI(3,5)P2): 1 (2×) and 1.003
- EC50 (hTPC2; + PI(3,5)P2 (10 nM)): 175 ± 19 µM
- EC50 (hTPC2; - PI(3,5)P2): 181 ± 6 µM
- inactivation of ITPC2, I500ms / I10ms (hTPC2; [3]): 0.9047 and 1.003 and 0.9967 and 0.9738
- inactivation of ITPC2, I500ms / I10ms (hTPC2; mean): 0.9697
- Rectification index of ITPC2, I+80mV/I-80mV (hTPC2; [3]): 0.903 and 1.02 and 0.912 and 0.8953
- Rectification index of ITPC2, I+80mV/I-80mV (hTPC2; PI(3,5)P2 0.3 µM, LyNa-VA1.2 100 µM, LyNA1 300 µM, mean): 0.93 ± 0.03 and 0.9325
- activation of whole-endolysosome ITPC2 (in words) (hTPC2; bath application, symmetric Na^+): readily activated ITPC2
- I@500ms/I@10ms (current decline at steady state) (hTPC2; voltage-step protocols, at all potentials): ~1.0
- effect on whole-endolysosome ITPC1 (in words) (hTPC1): inhibited ITPC1
Compound: Nc1nc2ccc(OC(F)(F)F)cc2s1 [LyNA1, Riluzole]
- Px/PNa+, Ca2+ [1, 2]: 0.09045 and 0.1026 and 0.1022 and 0.09007
- activation of whole-cell ITPC2-LL/AA (in words) ([1]; bath application, symmetric Na^+, 100 µM where stated): activated large and linear whole-cell currents
- voltage dependence of TPC2 activation (in words) (hTPC2): voltage independent; also recorded: no apparent voltage-dependent activation
- Dose-dependent activation of TPC2 (normalized current) (hTPC2; 100 µM, absence of PI(3,5)P2): 0.1347 and 0.1166 and 0.2034 and 0.258 and 0.1062
- Dose-dependent activation of TPC2 (normalized current) (hTPC2; 150 µM, absence of PI(3,5)P2): 0.4553 and 0.5013 and 0.5031 and 0.7594 and 0.3882
- Dose-dependent activation of TPC2 (normalized current) (hTPC2; 400 µM, absence of PI(3,5)P2): 0.9725 and 0.9884 and 0.9899 and 0.9935 and 0.9997 and 0.9921
- combined effect with PI(3,5)P2 on whole-endolysosome ITPC2 (in words) (hTPC2; PI(3,5)P2 50 nM): additive but not synergistic activation; also recorded: Additive effects
